Results taken from patent US20220354782A1, “SUBCUTANEOUSLY INJECTABLE INSULIN AND GLUCAGON FORMULATIONS AND METHODS OF ADMINISTRATION” (CASS PHARMACEUTICALS, INC., priority 2019, published 2022).
Like-named read-outs stand apart in the source and are kept apart here.

What was measured:
[1] = Solubility of insulin, FDKP and insulin plus FDKP between pH 6.0 and pH 7.4 (Example 9); assay type: physicochemical
Protocol: A standard solution of insulin (using recombinant human insulin) was made in 0.05N aqueous HCl. An aliquot (1 mg) of the solution was transferred into 4 different Eppendorf tubes and 9 mg of solid Na2-FDKP was added into each tube. A milky suspension formed immediately. The pH was adjusted to the values between pH 6.0 and pH 7.4 using 0.1N aqueous NaOH. Samples of insulin alone were compared to FDKP alone and to the solution of insulin and FDKP. The insulin alone samples were all insoluble. […] All samples containing 9 mg/ml FDKP and 1 mg/ml insulin were soluble at all pH values.

FDKP micelle formation = assay type: physicochemical; conditions: FIG. 3
Protocol: FIG. 3 is a graph depicting the concentration of FDKP for forming micelles in phosphate buffer at pH 7.4 above 0.03 mg/ml.
Without being restricted to any one mechanism for creating the ultra-fast insulin formulations, a diketopiperazine, for example FDKP, has effects as an absorption enhancer and permeation enhancer, a metal chelator, a surfactant, a bolaamphiphile, and an aggregation inhibitor, and promotes enhanced absorption through a combination of these effects, including enhancing the amount of monomer insulin in solution upon injection. For example, the fumaric acid charges on the FDKP may serve to charge-mask insulin positive charges, reducing the overall charge on the insulin, and making it more likely to be absorbed, especially when formulations have a pH of about 6.0 to about 7.2, as described herein.

diabetic minipigs = experiment: Glucose response after subcutaneous injection in diabetic minipigs (Example 8); assay type: in vivo, Yucatan minipigs
Protocol: Recombinant human insulin were prepared in ultra-fast acting subcutaneous injectable formulations in aqueous solutions containing FDKP at pH 6.5 and 7.4, as summarized in Table 6. All formulation preparation was conducted in a laminar flow hood and the final solutions were filtered through 0.2 micron filters. Both formulations were injected into the subcutaneous tissue of diabetic minipigs (Yucatan minipigs rendered diabetic by treatment with alloxan).
The glucose response from the pH 6.5 formulation compared to a subcutaneous injection of standard lispro insulin is shown in FIG. 1. […] Time to 50% glucose reduction from the formulation is 30 minutes, while that from standard lispro is 50 minutes.
The glucose response from the […] formulation compared to a subcutaneous injection of the ultra-fast acting pH 6.5 formulation, both containing FDKP, are shown in FIG. 2. […] The strong pH dependency of the absorption rate was not anticipated. While not wanting to be held to a specific mechanism for the rapid absorption, the lower pH solution appears to cause there to be less charge on the FDKP, which would make it more hydrophobic, and therefore more likely to bind tightly to the insulin molecule, thereby reducing the overall charge on insulin, causing there to be more monomers in solution, and enhancing the absorption by several mechanisms.

Molecule: O=C(O)/C=C/C(=O)NCCCCC1NC(=O)C(CCCCNC(=O)/C=C/C(=O)O)NC1=O (centres unmarked) [FDKP, 2,5-diketo-3,6-di(4-fumarylaminobutyl)piperazine]
- solubility ([1]; below pH 7.0): insoluble
- solubility ([1]; pH 6.0): Insoluble
- solubility ([1]; pH 6.5): Insoluble
- solubility ([1]; pH 7.0, listed as FDKP (9 mg/mL)): Partial
- solubility ([1]; pH 7.0, listed as FDKP alone): partially soluble
- solubility ([1]; pH 7.4, listed as FDKP (9 mg/mL)): Soluble
- solubility ([1]; pH 7.4, listed as FDKP alone): soluble
- concentration for forming micelles (FDKP micelle formation): ≥ 62 µM

Molecule: Insulin (1 mg/mL): Recombinant human insulin, 1 mg/mL, without FDKP [reference compound]
- solubility [1]: insoluble
- solubility ([1]; pH 6): insoluble
- solubility ([1]; pH 6.5): Insoluble
- solubility ([1]; pH 7): Insoluble
- solubility ([1]; pH 7.4): Insoluble

Molecule: insulin lispro [standard lispro]
- Time to 50% glucose reduction (diabetic minipigs): 50 min
